The source of these data is article PMC6829536 (International Journal of Molecular Sciences, 2019).

Series [1] relates to Cc1cc2nc3c(=O)[nH]c(=O)nc-3n(C[C@H](O)[C@H](O)[C@H](O)CO)c2cc1C. As to the kind of experiment: purified protein, by the assay type. The format is biochemical, Corynebacterium ammoniagenes. To be noted: RF varied, saturating ATP, apparent value, 20 mM PIPES, 0.8 mM MgCl2, pH 7.0, 25 °C. Here is the method:
Reactions were initiated by the addition of ~20 nM of enzyme. After 1 min incubation at 25 °C, the reactions were stopped by boiling the mixtures for 5 min. The composition of flavins in the supernatant was determined using an Alliance HPLC system (Waters, Milford, MA, USA) equipped with a 2707 autosampler and a HSST3 column (4.6 × 150 mm, 3.5 µm, Waters) preceded by a pre-column (4.6 × 20 mm, 3.5 µm, Waters). The chromatography was developed at 1 mL/min with a 6 min isocratic program of methanol 40% (v/v) in 5 mM ammonium acetate (pH 6.0). Detection of flavins was carried out using a 2475 Multi λ fluorescence detector (Waters), excitation wavelength of 470 nm and emission wavelength of 530 nm. […] The flavinic products of the reaction were identified by their retention times and quantified through their corresponding standard curves obtained under the same conditions. Controls containing free flavins in the absence of the enzyme were treated similarly to reaction samples to discard flavin degradation during RFK activity determination. […] In case of inhibition, the experimental data were fitted to a model describing the substrate inhibition of a bi-substrate mechanism. In these situations, errors in apparent Km and kcat (^appKm and ^appkcat) increased with the inhibition constant (Ki) value getting closer to Km^S. Reaction mixtures were evaluated in triplicates, and final results are expressed as the standard error of the fitted value (value ± SE).

Series [2] addresses T1, WT CaFADS (Corynebacterium ammoniagenes, UniProt Q59263).
T1 construct: made in house; host or cells: Escherichia coli
As to the kind of experiment: Isothermal titration calorimetry (ITC) of ligand binding at the FMNAT site. The note with it: 20 mM PIPES. For orientation: In ITC the heat of successive injections is recorded.

A further series has as its target T2, P56W CaFADS (Corynebacterium ammoniagenes, UniProt Q59263, P56W).
T2 construct: made in house; host or cells: E. coli BL21(DE3)
The series is described as above. To be noted: for -TΔS / ΔH / ΔG: P56W CaFADS, 20 mM PIPES.

The target of the next series is T3, P58W CaFADS (Corynebacterium ammoniagenes, UniProt Q59263, P58W).
T3 construct: made in house; host or cells: E. coli BL21(DE3)
The description is as above. To be noted: 20 mM PIPES.

The target of the next series is T4, P56A/P58A CaFADS (Corynebacterium ammoniagenes, UniProt Q59263, P56A/P58A).
T4 construct: made in house; host or cells: E. coli BL21(DE3)
The series is described as above. To be noted: 20 mM PIPES.

In another series the target is T5, L98A CaFADS (Corynebacterium ammoniagenes, UniProt Q59263, L98A).
T5 construct: made in house; host or cells: E. coli BL21(DE3)
Described as above. To be noted: 20 mM PIPES.

A further series concerns the target T6, L98K CaFADS (Corynebacterium ammoniagenes, UniProt Q59263, L98K).
T6 construct: made in house; host or cells: E. coli BL21(DE3)
Described as above. To be noted: 20 mM PIPES, pH 7.0, no MgCl2.

In a further series the target is T7, L98W CaFADS (Corynebacterium ammoniagenes, UniProt Q59263, L98W).
T7 construct: made in house; host or cells: E. coli BL21(DE3)
The series is described as above. To be noted: 20 mM PIPES.

The target of series [3] is T1, WT CaFADS. To be noted: cited from earlier work.
Series [4] relates to CaFADS variants. Put plainly: Qualitative detection of RFK, FMNAT and FADpp activities by TLC. The format is biochemical, Corynebacterium ammoniagenes. To be noted: all variants, 200 nM enzyme, 50 μM flavin, 0.2 mM ATP, 10 mM MgCl2, pH 7.0, 30 min and 2 h. Here is the method:
RFK and FMNAT activities were qualitatively assayed by the incubation of enzymes with substrates and separation of flavins (substrates and products) from reaction mixtures using TLC on Silica Gel SIL-G-25 plates (20 × 20 cm, thickness 0.25 mm) as previously described. […] Reactions were stopped by boiling the preparations for 5 min. Flavin spots were visualized under UV light.

In series [5] the test system is CaFADS variants. Put plainly: Difference spectroscopy of flavin binding at the FMNAT site. Set-up: species or system Corynebacterium ammoniagenes. The note with it: all variants, 20 mM PIPES, 10 mM MgCl2, pH 7.0, 25 °C. The protocol:
Spectroscopic measurements were carried out following previously established conditions and protocols. UV–visible absorption spectra were recorded in a Cary 100 spectrophotometer (Agilent Technologies, Santa Clara, CA, USA). Experimental extinction coefficients at 279 nm (ε^279) for each variant were determined based on the Gill and von Hippel method. In short, the UV–visible absorbance spectrum of the protein was recorded. Then samples were denatured with guanidinium hydrochloride (6 M in 20 mM sodium phosphate, pH 6.5). Then, the absorbance spectrum of the denatured sample was recorded and its concentration was calculated considering the theoretical extinction coefficient determined using the amino acid sequence. This concentration, taking into account the protein dilution in the denaturation process, was then used to determine ε^279 at the protein maximum by using the native protein spectrum before denaturation. Difference spectroscopy measurements were carried out in 20 mM PIPES, 10 mM MgCl2, pH 7.0, with saturating concentrations of ligands. Circular dichroism (CD) spectra were recorded using a Chirascan spectropolarimeter (Appl. Phot. Ltd., Leatherhead, Surrey, UK) at 25 °C. […]

The mark [6] stands for this setting: 10 mM MgCl2, pH 7.0, n.d. = no interaction profile was detected.

Regarding “L98W CaFADS (Corynebacterium ammoniagenes; L98W)”, the Km in series [1] (other: L98W CaFADS) is given as 1.6 ± 0.6 µM.
Take “P56W CaFADS (Corynebacterium ammoniagenes; P56W)”: the Km in series [1] (other: P56W CaFADS) stood at 0.4 ± 0.1 µM.
In the case of “L98K CaFADS (Corynebacterium ammoniagenes; L98K)”, the Km in series [1] (other: L98K CaFADS) is listed as 4.0 ± 1.1 µM.
For the compound “P58W CaFADS (Corynebacterium ammoniagenes; P58W)”, the Km in series [1] (other: P58W CaFADS) was 1.3 ± 0.7 µM.
With `Nc1ncnc2c1ncn2[C@@H]1O[C@H](COP(=O)(O)OP(=O)(O)OP(=O)(O)O)[C@@H](O)[C@H]1O` [ATP, Adenosine 5′-triphosphate], the “-TΔS” value at WT CaFADS [2] (pH 7.0, no MgCl2) is 39 ± 6 kcal/mol; at P56W CaFADS (pH 7.0, no MgCl2), 11 ± 2 kcal/mol; at P58W CaFADS (pH 7.0, no MgCl2), -3.8 ± 0.1 kcal/mol; at P56A/P58A CaFADS (pH 7.0, no MgCl2), -3.6 ± 0.2 kcal/mol; at L98A CaFADS (pH 7.0, no MgCl2) it was 15 ± 2 kcal/mol; on L98K CaFADS it was 33 ± 19 kcal/mol. Also, on L98W CaFADS (pH 7.0, no MgCl2), the “-TΔS” value worked out at 26 ± 6 kcal/mol. In addition, the ΔH is listed as -44 ± 6 kcal/mol at WT CaFADS [2] (pH 7.0, no MgCl2); -16 ± 3 kcal/mol at P56W CaFADS (pH 7.0, no MgCl2); -2.7 ± 0.1 kcal/mol at P58W CaFADS (pH 7.0, no MgCl2); -2.8 ± 0.2 kcal/mol at P56A/P58A CaFADS (pH 7.0, no MgCl2); -20 ± 3 kcal/mol at L98A CaFADS (pH 7.0, no MgCl2); -39 ± 19 kcal/mol at L98K CaFADS. The compound also registered a ΔH at L98W CaFADS (pH 7.0, no MgCl2) of -32 ± 6 kcal/mol. Also, the ΔG on P58W CaFADS (pH 7.0, no MgCl2) was -6.5 ± 0.1 kcal/mol; at P56A/P58A CaFADS (pH 7.0, no MgCl2), -6.4 ± 0.1 kcal/mol; on L98A CaFADS (pH 7.0, no MgCl2) it was -5.6 ± 0.1 kcal/mol; on L98K CaFADS, -5.6 ± 0.2 kcal/mol. Moreover, the kcat at WT CaFADS [3] (ATP varied, RF at ~80% of maximum activity, apparent value, 20 mM PIPES, 0.8 mM MgCl2, pH 7.0, 25 °C) was 2.58 ± 0.083 s⁻¹. Besides, the Km at WT CaFADS [3] (read-out: Km^ATP, ATP varied, RF at ~80% of maximum activity, 20 mM PIPES, 0.8 mM MgCl2, pH 7.0, 25 °C) is 28 ± 4 µM.
Consider `Cc1cc2nc3c(=O)[nH]c(=O)nc-3n(C[C@H](O)[C@H](O)[C@H](O)COP(=O)(O)O)c2cc1C` [FMN, Riboflavin 5′-phosphate], for which the “-TΔS” value was 15 ± 1 kcal/mol on WT CaFADS [2] (10 mM MgCl2, pH 7.0); -6.5 ± 0.1 kcal/mol on P56W CaFADS (10 mM MgCl2, pH 7.0); -7.3 ± 0.1 kcal/mol at P58W CaFADS (10 mM MgCl2, pH 7.0); -7.9 ± 0.1 kcal/mol at L98A CaFADS (setting [6]); -7.2 ± 0.1 kcal/mol on L98W CaFADS (10 mM MgCl2, pH 7.0). Also, the ΔH was -22 ± 1 kcal/mol on WT CaFADS [2] (10 mM MgCl2, pH 7.0); -1.4 ± 0.1 kcal/mol on P56W CaFADS (10 mM MgCl2, pH 7.0); -1.3 ± 0.1 kcal/mol on P58W CaFADS (10 mM MgCl2, pH 7.0); -1.8 ± 0.1 kcal/mol at P56A/P58A CaFADS (10 mM MgCl2, pH 7.0); -1.2 ± 0.1 kcal/mol at L98A CaFADS (setting [6]); -1.5 ± 0.1 kcal/mol at L98W CaFADS (10 mM MgCl2, pH 7.0). On P56W CaFADS (P56W CaFADS vs WT), the “Kd^FMN lower than WT” value is on record as “up to 4 fold”. Moreover, the ΔG is reported as -7.9 ± 0.1 kcal/mol at P56W CaFADS (10 mM MgCl2, pH 7.0); -8.6 ± 0.1 kcal/mol at P58W CaFADS (10 mM MgCl2, pH 7.0); -8.8 ± 0.1 kcal/mol on P56A/P58A CaFADS (10 mM MgCl2, pH 7.0); -9.0 ± 0.1 kcal/mol on L98A CaFADS (setting [6]); -8.7 ± 0.1 kcal/mol at L98W CaFADS (10 mM MgCl2, pH 7.0). For the same compound, in the series with CaFADS variants [4], the “FMNAT activity (transformation of FMN into FAD), qualitative” value was “none of the variants was neither capable of catalyzing the transformation of FMN into FAD”. Besides, the “difference spectra after incubation with FMN” value in the series with CaFADS variants [5] (saturating FMN) is “All the variants produced difference spectra”.
Consider “L98A CaFADS (Corynebacterium ammoniagenes; L98A)”, for which the Km in series [1] (other: L98A CaFADS) is listed as 1.5 ± 0.7 µM.
For the compound “P56A/P58A CaFADS (Corynebacterium ammoniagenes; P56A/P58A)”, in [1] (other: P56A/P58A CaFADS), the Km was found to be 0.9 ± 0.4 µM.
For `Cc1cc2nc3c(=O)[nH]c(=O)nc-3n(C[C@H](O)[C@H](O)[C@H](O)COP(=O)(O)OP(=O)(O)OC[C@H]3O[C@@H](n4cnc5c(N)ncnc54)[C@H](O)[C@@H]3O)c2cc1C` [FAD, Riboflavin 5′-adenosine diphosphate], the “-TΔS” value was 18 ± 1 kcal/mol on WT CaFADS [2] (10 mM MgCl2, pH 7.0); -6.1 ± 0.1 kcal/mol at P56W CaFADS (10 mM MgCl2, pH 7.0); -7.0 ± 0.1 kcal/mol on P58W CaFADS (10 mM MgCl2, pH 7.0); -7.4 ± 0.1 kcal/mol on P56A/P58A CaFADS (10 mM MgCl2, pH 7.0); -6.9 ± 0.1 kcal/mol on L98W CaFADS (10 mM MgCl2, pH 7.0). The ΔH was -26 ± 1 kcal/mol at WT CaFADS [2] (10 mM MgCl2, pH 7.0); -0.9 ± 0.1 kcal/mol at P56W CaFADS (10 mM MgCl2, pH 7.0); -0.56 ± 0.02 kcal/mol at P58W CaFADS (10 mM MgCl2, pH 7.0); -0.39 ± 0.1 kcal/mol on P56A/P58A CaFADS (10 mM MgCl2, pH 7.0); -0.6 ± 0.1 kcal/mol at L98W CaFADS (10 mM MgCl2, pH 7.0). Besides, the ΔG at P56W CaFADS (10 mM MgCl2, pH 7.0) was -6.9 ± 0.1 kcal/mol; at P58W CaFADS (10 mM MgCl2, pH 7.0), -7.6 ± 0.1 kcal/mol; at P56A/P58A CaFADS (10 mM MgCl2, pH 7.0), -7.8 ± 0.1 kcal/mol; on L98W CaFADS (10 mM MgCl2, pH 7.0), -7.4 ± 0.1 kcal/mol. The “difference spectra on titration with FAD” value with CaFADS variants [5] (saturating FAD) was “hardly produced difference spectra”.

For orientation: Km means the substrate concentration at which the rate is half of its maximum. One may read the kcat as the number of substrate molecules converted per active site and unit of time at saturation.
